Assay results reported in patent US20240208992A1, “MACROCYCLES AS CFTR MODULATORS” (Idorsia Pharmaceuticals Ltd, priority 2021, published 2024).

Molecular target: human F508del-CFTR (Homo sapiens, UniProt P13569, DEL508-508)
Test: F508del-CFTR cell surface expression (corrector activity), DiscoveRx ß-galactosidase complementation chemiluminescence assay in recombinant U2OS cell line;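 also: U2OS cells co-expressing ProLink-tagged F508del-CFTR and a membrane-anchored enzyme acceptor, where more surface CFTR restores β-galactosidase activity measured by chemiluminescence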
Conditions: for EC50: EC50, F508del-CFTR cell surface expression; for Emax: U2OS
[1] = U2OS cells, 16h compound incubation, geomean values
[2] = in relation to Emax of corrector lumacaftor (=100%), arithmetic mean values
[3] = U2OS cells, 16h compound incubation, geomean of several measurements
[4] = in relation to the Emax of the corrector lumacaftor (=100%), U2OS cells, 16h compound incubation, arithmetic mean
[5] = U2OS cell line, 16h compound incubation, geomean values
[6] = in relation to the Emax of the corrector lumacaftor (=100%), U2OS cell line, 16h compound incubation, arithmetic mean values

Sequence of human F508del-CFTR (P13569 with tags, fused parts or gaps DEL508-508): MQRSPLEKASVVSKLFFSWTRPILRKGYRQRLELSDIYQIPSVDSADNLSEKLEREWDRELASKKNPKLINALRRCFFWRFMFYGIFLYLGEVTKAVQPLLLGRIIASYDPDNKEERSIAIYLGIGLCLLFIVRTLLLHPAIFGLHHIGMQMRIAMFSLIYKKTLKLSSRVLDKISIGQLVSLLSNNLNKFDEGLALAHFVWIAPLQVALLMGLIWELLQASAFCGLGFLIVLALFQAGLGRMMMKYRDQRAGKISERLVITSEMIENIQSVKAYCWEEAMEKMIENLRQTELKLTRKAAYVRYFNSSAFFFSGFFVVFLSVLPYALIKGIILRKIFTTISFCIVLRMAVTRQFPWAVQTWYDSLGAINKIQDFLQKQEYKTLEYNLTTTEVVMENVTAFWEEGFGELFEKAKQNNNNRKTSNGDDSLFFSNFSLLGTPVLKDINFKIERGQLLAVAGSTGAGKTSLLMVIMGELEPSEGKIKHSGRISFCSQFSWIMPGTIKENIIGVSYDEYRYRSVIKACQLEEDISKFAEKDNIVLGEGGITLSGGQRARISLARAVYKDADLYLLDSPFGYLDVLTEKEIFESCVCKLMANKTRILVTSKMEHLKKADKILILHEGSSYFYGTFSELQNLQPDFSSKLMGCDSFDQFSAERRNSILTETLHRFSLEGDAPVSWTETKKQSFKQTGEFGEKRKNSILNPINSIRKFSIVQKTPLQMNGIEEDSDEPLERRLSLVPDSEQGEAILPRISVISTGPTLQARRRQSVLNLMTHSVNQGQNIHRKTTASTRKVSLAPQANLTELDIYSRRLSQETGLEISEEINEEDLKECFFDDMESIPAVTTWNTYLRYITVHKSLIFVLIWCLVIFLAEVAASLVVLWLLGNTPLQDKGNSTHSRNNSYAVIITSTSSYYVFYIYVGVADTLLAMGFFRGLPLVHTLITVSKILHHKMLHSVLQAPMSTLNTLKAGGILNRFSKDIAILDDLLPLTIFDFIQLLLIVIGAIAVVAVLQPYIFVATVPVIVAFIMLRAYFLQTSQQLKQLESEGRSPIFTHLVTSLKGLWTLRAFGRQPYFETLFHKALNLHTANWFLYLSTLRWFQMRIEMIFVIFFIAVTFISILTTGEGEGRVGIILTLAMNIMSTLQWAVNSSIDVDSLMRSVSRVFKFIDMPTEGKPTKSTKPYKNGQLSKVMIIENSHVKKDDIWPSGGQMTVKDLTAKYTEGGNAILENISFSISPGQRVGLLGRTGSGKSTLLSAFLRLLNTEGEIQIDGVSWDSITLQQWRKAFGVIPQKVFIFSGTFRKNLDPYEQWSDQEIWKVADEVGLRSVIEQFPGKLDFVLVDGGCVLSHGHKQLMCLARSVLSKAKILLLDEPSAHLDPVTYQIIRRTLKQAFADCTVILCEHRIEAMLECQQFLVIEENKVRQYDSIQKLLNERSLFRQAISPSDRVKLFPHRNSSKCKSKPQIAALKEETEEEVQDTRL
Method: The method measures the effect of over-night compound incubation on F508del-CFTR cell surface expression in a recombinant U2OS cell line (DiscoveRx, #93-0987C3). This cell line is engineered to co-express (i) human F508del-CFTR tagged with a Prolink (PK=short ß-galactosidase fragment) and (ii) the remainder of the ß-galactosidase enzyme (Enzyme Acceptor; EA) localized to the plasma membrane. Incubation with compounds that increase PK-tagged F508del-CFTR at the plasma membrane will lead to complementation of the EA fragment to form a functional ß-galactosidase enzyme which is quantified by a chemiluminescence reaction.
The cells are incubated for 5h in the incubator before the addition of 5 μl/well of compound dilution series (5× working stocks in full medium). […] The cells are co-incubated with the compounds for 16h in the incubator at 37° C., 5% CO2. The next day, the cell plates are incubated for 2h at RT in the dark. […] Concentration-response curves are generated using compound-intrinsic maximal efficacy as upper plateau, and from these CRCs compound-intrinsic EC50 values are determined.
The calculated EC50 values may fluctuate depending on the daily assay performance. […] EC50 values from several measurements are given as geomean values. The calculated Emax values may fluctuate depending on the daily assay performance. […] Emax values from several measurements are given as arithmetic mean values.

`Cc1cc(CCNC(=O)[C@@H]2CC(=O)N(C)[C@@H](CC(C)C)C(=O)N3CCCC[C@@H]3C(=O)N[C@H](Cc3ccccc3)COc3ccc4c(c3C(=O)N2)OCC4)on1` [Example 455, (8S,12S,18aR,21R)-21-benzyl-12-isobutyl-11-methyl-N-(2-(3-methylisoxazol-5-yl)ethyl)-6,10,13,19-tetraoxo-3,4,6,7,8,9,10,11,12,13,16,17,18,18a,19,20,21,22-octadecahydro-15H-benzofuro[7,6-p]pyrido[2,1-f][1]oxa[4,7,10,14]tetraazacycloheptadecine-8-carboxamide] showed an EC50 [1] of 677 nM and an Emax [2] of 211%.

Compound `COc1cc2c(cn1)OC[C@@H](Cc1ccccc1)NC(=O)[C@H]1CCCCN1C(=O)[C@H](CC(C)C)N(C)C(=O)C[C@@H](C(=O)NCCc1cc(C3CC3)no1)NC2=O` [Example 517, (7S,11S,17aR,20R)-20-benzyl-N-(2-(3-cyclopropylisoxazol-5-yl)ethyl)-11-isobutyl-3-methoxy-10-methyl-5,9,12,18-tetraoxo-5,6,7,8,9,10,11,12,15,16,17,17a,18,19,20,21-hexadecahydro-14H-dipyrido[2,1-f:2′,3′-p][1]oxa[4,7,10,14]tetraazacycloheptadecine-7-carboxamide] has an EC50 [1] of 986 nM and an Emax [2] of 222%.

`CC(C)C[C@H]1C(=O)N(C)[C@H](CC2CCCC2)C(=O)N[C@H](Cc2ccccc2)COc2cnc3ccc(F)cc3c2C(=O)N[C@H](C(=O)NCCc2noc(C3CC3)n2)CC(=O)N1C` [Example 693, (3S,7S,10R,13R)-13-benzyl-10-(cyclopentylmethyl)-N-(2-(5-cyclopropyl-1,2,4-oxadiazol-3-yl)ethyl)-20-fluoro-7-isobutyl-6,9-dimethyl-1,5,8,11-tetraoxo-1,2,3,4,5,6,7,8,9,10,11,12,13,14-tetradecahydro-[1]oxa[4,7,10,14]tetraazacycloheptadecino[17,16-c]quinoline-3-carboxamide] gave an EC50 [1] of 40 nM and an Emax [2] of 401%.

Compound `COc1cc(CCNC(=O)[C@@H]2CC(=O)N(C)[C@@H](CC(C)C)C(=O)N3CCN(CC(C)C)C[C@@H]3C(=O)N[C@H](Cc3ccccc3)COc3ccc4ccccc4c3C(=O)N2)cc(OC)c1` [Example 613, (4aR,7R,18S,22S)-7-benzyl-N-(3,5-dimethoxyphenethyl)-3,22-diisobutyl-21-methyl-5,16,20,23-tetraoxo-2,3,4,4a,5,6,7,8,16,17,18,19,20,21,22,23-hexadecahydro-1H-naphtho[1,2-p]pyrazino[2,1-f][1]oxa[4,7,10,14]tetraazacycloheptadecine-18-carboxamide] has an EC50 [1] of 82 nM and an Emax [2] of 312%.

`COc1cc(CCNC(=O)[C@@H]2CC(=O)N(C)[C@@H](CC(C)C)C(=O)N(C)[C@H](Cc3nc(C(F)(F)F)no3)C(=O)N[C@H](Cc3ccccc3)COc3ccc4cnc(C)cc4c3C(=O)N2)on1` [Example 898, (3S,7S,10R,13R)-13-benzyl-7-isobutyl-N-(2-(3-methoxyisoxazol-5-yl)ethyl)-6,9,20-trimethyl-1,5,8,11-tetraoxo-10-((3-(trifluoromethyl)-1,2,4-oxadiazol-5-yl)methyl)-1,2,3,4,5,6,7,8,9,10,11,12,13,14-tetradecahydro-[1]oxa[4,7,10,14]tetraazacycloheptadecino[16,17-f]isoquinoline-3-carboxamide] was tested, and the EC50 [3] was 22 nM and the Emax [4] was 440%.

For `CCOCC[C@@H]1C(=O)N[C@H](Cc2ccccc2)COc2ccc3ncc(F)cc3c2C(=O)N[C@H](C(=O)NCCc2nc(OC)no2)CC(=O)N(C)[C@@H](CC(C)C)C(=O)N1C` [Example 929, (3S,7S,10R,13R)-13-benzyl-10-(2-ethoxyethyl)-20-fluoro-7-isobutyl-N-(2-(3-methoxy-1,2,4-oxadiazol-5-yl)ethyl)-6,9-dimethyl-1,5,8,11-tetraoxo-1,2,3,4,5,6,7,8,9,10,11,12,13,14-tetradecahydro-[1]oxa[4,7,10,14]tetraazacycloheptadecino[16,17-f]quinoline-3-carboxamide], the EC50 [3] was 306 nM and the Emax [4] was 513%.

`CCc1ccc(CCNC(=O)[C@@H]2CC(=O)N(C)[C@@H](CC(C)C)C(=O)N(C)CC(=O)N[C@H](Cc3ccccc3)COc3cccc(OC)c3C(=O)N2)cc1` [Example 239, (3R,9S,13S)-3-benzyl-N-(4-ethylphenethyl)-9-isobutyl-16-methoxy-7,10-dimethyl-5,8,11,15-tetraoxo-2,3,4,5,6,7,8,9,10,11,12,13,14,15-tetradecahydrobenzo[p][1]oxa[4,7,10,14]tetraazacycloheptadecine-13-carboxamide] was tested, and the EC50 [5] was 514 nM and the Emax [6] was 142%.

Work on `COc1cccc2c1C(=O)N[C@H](C(=O)NCCc1ccc3c(c1)OCO3)CC(=O)N(C)[C@@H](CC(C)C)C(=O)N(C[C@@H]1CCCCO1)CC(=O)N[C@H](Cc1ccccc1)CO2` [Example 306, (3R,9S,13S)-N-(2-(benzo[d][1,3]dioxol-5-yl)ethyl)-3-benzyl-9-isobutyl-16-methoxy-10-methyl-5,8,11,15-tetraoxo-7-(((S)-tetrahydro-2H-pyran-2-yl)methyl)-2,3,4,5,6,7,8,9,10,11,12,13,14,15-tetradecahydrobenzo[p][1]oxa[4,7,10,14]tetraazacycloheptadecine-13-carboxamide] yielded an EC50 [5] of 923 nM and an Emax [6] of 139%.

`COc1cc2c(cc1OC)C(=O)N[C@H](C(=O)NCCc1ccc(N(C)C)cc1)CC(=O)N(C)[C@@H](CC(C)C)C(=O)N(C)CC(=O)N[C@H](Cc1ccccc1)CO2` [Example 197, (3R,9S,13S)-3-benzyl-N-(4-(dimethylamino)phenethyl)-9-isobutyl-17,18-dimethoxy-7,10-dimethyl-5,8,11,15-tetraoxo-2,3,4,5,6,7,8,9,10,11,12,13,14,15-tetradecahydrobenzo[p][1]oxa[4,7,10,14]tetraazacycloheptadecine-13-carboxamide] was tested, and the EC50 [5] was 579 nM and the Emax [6] was 132%.

In the case of `CC(C)C[C@H]1C(=O)N(C)C2(CC2)C(=O)N[C@H](Cc2ccccc2)COc2cnc3ccccc3c2C(=O)N[C@H](C(=O)NCCc2nc(C3CC3)no2)CC(=O)N1C` [Example 121, (3′S,7′S,13′R)-13′-benzyl-N-(2-(3-cyclopropyl-1,2,4-oxadiazol-5-yl)ethyl)-7′-isobutyl-6′,9′-dimethyl-1′,5′,8′,11′-tetraoxo-2′,3′,4′,5′,6′,7′,8′,9′,11′,12′,13′,14′-dodecahydro-1′H-spiro[cyclopropane-1,10′-[1]oxa[4,7,10,14]tetraazacycloheptadecino[17,16-c]quinoline]-3′-carboxamide], the EC50 [5] is reported as 615 nM and the Emax [6] is reported as 354%.

Compound `Cc1cc(CCNC(=O)[C@@H]2CC(=O)N(C)[C@@H](CC(C)C)C(=O)N3CCN(CC(C)C)C[C@@H]3C(=O)N[C@H](Cc3ccccc3)COc3ccc4nc(C)oc4c3C(=O)N2)on1` [Example 620, (8S,12S,18aR,21R)-21-benzyl-12,17-diisobutyl-4,11-dimethyl-N-(2-(3-methylisoxazol-5-yl)ethyl)-6,10,13,19-tetraoxo-6,7,8,9,10,11,12,13,16,17,18,18a,19,20,21,22-hexadecahydro-15H-oxazolo[4′,5′:5,6]benzo[1,2-p]pyrazino[2,1-f][1]oxa[4,7,10,14]tetraazacycloheptadecine-8-carboxamide] has an EC50 [1] of 316 nM and an Emax [2] of 266%.

`COc1noc(CCNC(=O)[C@@H]2CC(=O)N(C)[C@@H](CC(C)C)C(=O)N(C)[C@H](Cc3nc(-c4ccc(F)cn4)no3)C(=O)N[C@H](Cc3ccccc3)COc3ccc4cnc(C)cc4c3C(=O)N2)n1` [Example 917, (3S,7S,10R,13R)-13-benzyl-10-((3-(5-fluoropyridin-2-yl)-1,2,4-oxadiazol-5-yl)methyl)-7-isobutyl-N-(2-(3-methoxy-1,2,4-oxadiazol-5-yl)ethyl)-6,9,20-trimethyl-1,5,8,11-tetraoxo-1,2,3,4,5,6,7,8,9,10,11,12,13,14-tetradecahydro-[1]oxa[4,7,10,14]tetraazacycloheptadecino[16,17-f]isoquinoline-3-carboxamide] showed an EC50 [3] of 487 nM and an Emax [4] of 398%.

With `CC(C)C[C@H]1C(=O)N(C)[C@H](CC2CCCCC2)C(=O)N[C@H](Cc2ccccc2)COc2cnc3ccc(F)cc3c2C(=O)N[C@H](C(=O)NCCc2nc(C3CC3)no2)CC(=O)N1C` [Example 696, (3S,7S,10R,13R)-13-benzyl-10-(cyclohexylmethyl)-N-(2-(3-cyclopropyl-1,2,4-oxadiazol-5-yl)ethyl)-20-fluoro-7-isobutyl-6,9-dimethyl-1,5,8,11-tetraoxo-1,2,3,4,5,6,7,8,9,10,11,12,13,14-tetradecahydro-[1]oxa[4,7,10,14]tetraazacycloheptadecino[17,16-c]quinoline-3-carboxamide] the EC50 [1] was 14 nM and the Emax [2] was 252%.

Work on `COc1cc(CCNC(=O)[C@@H]2CC(=O)N(C)[C@@H](CC(C)C)C(=O)N(C)[C@H](CCOc3ccccc3)C(=O)N[C@H](Cc3ccccc3)COc3ccnc(OC)c3C(=O)N2)on1` [Example 856, (3R,6R,9S,13S)-3-benzyl-9-isobutyl-16-methoxy-N-(2-(3-methoxyisoxazol-5-yl)ethyl)-7,10-dimethyl-5,8,11,15-tetraoxo-6-(2-phenoxyethyl)-2,3,4,5,6,7,8,9,10,11,12,13,14,15-tetradecahydropyrido[3,4-p][1]oxa[4,7,10,14]tetraazacycloheptadecine-13-carboxamide] yielded an EC50 [3] of 35 nM and an Emax [4] of 357%.

With `COc1cccc(CCNC(=O)[C@@H]2CC(=O)N(C)[C@@H](CC(C)C)C(=O)N(C)[C@@H](COCc3ccccc3)C(=O)N[C@H](Cc3ccccc3)COc3ccc4ccccc4c3C(=O)N2)c1` [Example 715, (3S,7S,10S,13R)-13-benzyl-10-((benzyloxy)methyl)-7-isobutyl-N-(3-methoxyphenethyl)-6,9-dimethyl-1,5,8,11-tetraoxo-1,2,3,4,5,6,7,8,9,10,11,12,13,14-tetradecahydronaphtho[1,2-p][1]oxa[4,7,10,14]tetraazacycloheptadecine-3-carboxamide] the EC50 [1] was 64 nM and the Emax [2] was 283%.
